The values below come from US20130217664A1, “NOVEL COMPOUNDS USEFUL FOR THE TREATMENT OF DEGENERATIVE AND INFLAMMATORY DISEASES” (priority 2012, published 2013).

For one assay, the target named is T1, human JAK1 (Homo sapiens, UniProt P23458).
T1 construct: catalytic domain, amino acids 866-1154; catalog number PV4774; purchased Invitrogen PV4774
Nature of the assay: JAK1 inhibition assay (polyGT substrate / Ulight-JAK1 peptide). Conditions: recombinant human JAK1 catalytic domain; polyGT or Ulight-JAK1 peptide assay. The class given is biochemical. As to the method: 1.1 JAK1 Inhibition Assay
1.1.1 JAK1 Assay polyGT Substrate
After 45 min at 30° C., reactions are stopped by adding of 25 μL/well of 150 mM phosphoric acid. […] Plates are washed 6 times with 300 μL per well of a 75 mM phosphoric acid solution and the bottom of the plates is sealed. 40 μL/well of Microscint-20 is added, the top of the plates is sealed and readout is performed using the Topcount (Perkin Elmer). Kinase activity is calculated by subtracting counts per min (cpm) obtained in the presence of a positive control inhibitor (10 μM staurosporine) from cpm obtained in the presence of vehicle. The ability of a test compound to inhibit this activity is determined as:
(§1) Percentage inhibition=((cpm determined for sample with test compound present−cpm determined for sample with positive control inhibitor)divided by(cpm determined in the presence of vehicle−cpm determined for sample with positive control inhibitor))*100.
Dose dilution series are prepared for the compounds enabling the testing of dose-response effects in the JAK1 assay and the calculation of the IC50 for each compound.
1.1.2 JAK1 Ulight-JAK1 Peptide Assay
(§2) After 60 min at room temperature, reactions were stopped by adding 20 μL/well of detection mixture (1× detection buffer (Perkin Elmer, catalog number CR97-100C), 0.5 nM Europium-anti-phosphotyrosine (PT66) (Perkin Elmer, catalog number AD0068), 10 mM EDTA). […] Kinase activity was calculated by subtracting relative fluorescence units (RFU) obtained in the presence of a positive control inhibitor (10 μM staurosporine) from RFU obtained in the presence of vehicle. The ability of a test compound to inhibit this activity was determined as:
(§3) Percentage inhibition=((RFU determined for sample with test compound present−RFU determined for sample with positive control inhibitor)divided by(RFU determined in the presence of vehicle−RFU determined for sample with positive control inhibitor))*100.
Dose dilution series were prepared for the compounds enabling the testing of dose-response effects in the JAK1 assay and the calculation of the IC50 for the compound. Each compound is routinely tested at concentration of 20 μM followed by a 1/5 serial dilution, 10 points in a final concentration of 1% DMSO. […] The data are expressed as the average IC50 from the assays±standard error of the mean.

The next assay addresses T2, human JAK2 (Homo sapiens, UniProt O60674).
T2 construct: catalytic domain (amino acids 808-1132; catalog number PV4210); GST; purchased Invitrogen PV4210
Nature of the assay: JAK2 inhibition assay (polyGT substrate / Ulight-JAK1 peptide). The class given is biochemical. Conditions: recombinant human JAK2 catalytic domain; polyGT or Ulight-JAK1 peptide assay. The protocol: 1.2 JAK2 Inhibition Assay
1.2.1 JAK2 Assay polyGT Substrate
0.025 mU of JAK2 is incubated with 2.5 μg polyGT substrate (Sigma catalog number P0275) in kinase reaction buffer (5 mM MOPS pH 7.5, 9 mM MgAc, 0.3 mM EDTA, 0.06% Brij and 0.6 mM DTT, 1 μM non-radioactive ATP, 0.25 μCi ^33P-gamma-ATP (GE Healthcare, catalog number AH9968) final concentrations) with or without 5 μL containing test compound or vehicle (DMSO, 1% final concentration), in a total volume of 25 μL, in a polypropylene 96-well plate (Greiner, V-bottom). After 90 min at 30° C., reactions are stopped by adding of 25 μL/well of 150 mM phosphoric acid. […] Plates are washed 6 times with 300 μL per well of a 75 mM phosphoric acid solution and the bottom of the plates is sealed. 40 μL/well of Microscint-20 is added, the top of the plates is sealed and readout is performed using the Topcount (Perkin Elmer). Kinase activity is calculated by subtracting counts per min (cpm) obtained in the presence of a positive control inhibitor (10 μM staurosporine) from cpm obtained in the presence of vehicle. The ability of a test compound to inhibit this activity is determined as:
as §1
Dose dilution series are prepared for the compounds enabling the testing of dose-response effects in the JAK2 assay and the calculation of the IC50 for each compound.
1.2.2 JAK2 Ulight-JAK1 Peptide Assay
as §2, §3
Dose dilution series are prepared for compound enabling the testing of dose-response effects in the JAK2 assay and the calculation of the IC50 for the compound. Each compound is routinely tested at concentration of 20 μM followed by a 1/5 serial dilution, 10 points in a final concentration of 1% DMSO. […] The data are expressed as the average IC50 from the assays±standard error of the mean.

Molecules are shown by their SMILES.

T2 sequence (O60674 808-1132): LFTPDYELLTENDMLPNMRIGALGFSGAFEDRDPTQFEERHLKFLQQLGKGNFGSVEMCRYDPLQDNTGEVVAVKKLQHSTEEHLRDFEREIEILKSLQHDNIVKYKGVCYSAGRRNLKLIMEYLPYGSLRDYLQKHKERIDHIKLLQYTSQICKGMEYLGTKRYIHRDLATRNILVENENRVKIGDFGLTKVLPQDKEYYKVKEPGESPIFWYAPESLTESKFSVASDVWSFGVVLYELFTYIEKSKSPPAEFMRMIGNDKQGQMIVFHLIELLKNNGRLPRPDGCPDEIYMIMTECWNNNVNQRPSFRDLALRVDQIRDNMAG
T1 sequence (P23458 866-1154): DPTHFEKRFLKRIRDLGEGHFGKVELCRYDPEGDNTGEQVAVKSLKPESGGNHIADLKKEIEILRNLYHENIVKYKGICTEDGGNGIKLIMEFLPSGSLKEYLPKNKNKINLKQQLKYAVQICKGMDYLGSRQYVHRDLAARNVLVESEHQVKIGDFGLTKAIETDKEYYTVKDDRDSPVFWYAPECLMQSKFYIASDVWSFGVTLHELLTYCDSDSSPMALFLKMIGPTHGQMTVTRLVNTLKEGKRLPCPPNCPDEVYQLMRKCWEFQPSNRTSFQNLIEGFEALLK

For `CCN(c1ccc2ocnc2c1)c1cc2c(cn1)ncn2C` [Compound 3, N-ethyl-N-(1-methyl-1H-imidazo[4,5-c]pyridin-6-yl)benzo[d]oxazol-5-amine], the IC50 on human JAK1 and at human JAK2 was greater than 1000 nM each time.
Regarding `CCN(c1ccc2oc(C)nc2c1)c1cc2c(cn1)ncn2C` [Compound 6, N-ethyl-2-methyl-N-(1-methyl-1H-imidazo[4,5-c]pyridin-6-yl)benzo[d]oxazol-5-amine], the IC50 is 501 to 1000 nM at human JAK1 and greater than 1000 nM at human JAK2.
Take `CCN(c1ccc2c(ccn2C)c1)c1cc2c(cn1)ncn2C` [Compound 8, N-ethyl-1-methyl-N-(1-methyl-1H-indol-5-yl)-1H-imidazo[4,5-c]pyridin-6-amine]: the results for the half-maximal inhibitory concentration (IC50) on human JAK1 and on human JAK2 were greater than 1000 nM and 101 to 500 nM, respectively.
Consider `CCN(c1cccc(C(=O)c2ccccc2)c1)c1cc2c(cn1)ncn2C` [Compound 9, (3-(ethyl(1-methyl-1H-imidazo[4,5-c]pyridin-6-yl)amino)phenyl)(phenyl) methanone], for which the IC50 at human JAK1 and at human JAK2 was greater than 1000 nM throughout.
Take `CCN(c1ccc2sc(C)nc2c1)c1cc2c(cn1)ncn2C` [Compound 10, N-ethyl-2-methyl-N-(1-methyl-1H-imidazo[4,5-c]pyridin-6-yl)benzo[d]thiazol-5-amine]: the IC50 on human JAK1 and on human JAK2 was greater than 1000 nM throughout.
For the compound `CCN(c1cccc(Oc2ccccc2)c1)c1cc2c(cn1)ncn2C` [Compound 11, N-ethyl-1-methyl-N-(3-phenoxyphenyl)-1H-imidazo[4,5-c]pyridin-6-amine], the IC50 at human JAK1 is 101 to 500 nM; at human JAK2, greater than 1000 nM.
On to `CCN(c1cccc(C(O)c2ccccc2)c1)c1cc2c(cn1)ncn2C` (stereo not drawn) [Compound 12, (3-(ethyl(1-methyl-1H-imidazo[4,5-c]pyridin-6-yl)amino)phenyl)(phenyl) MeOH], for which the results for the IC50 at human JAK1 and at human JAK2 were 501 to 1000 nM and greater than 1000 nM, respectively.
In the same order, the values of `CCN(c1ccc(CO)cc1)c1cc2c(cn1)ncn2C` [Compound 13, (4-(ethyl(1-methyl-1H-imidazo[4,5-c]pyridin-6-yl)amino)phenyl)MeOH] are 501 to 1000 nM and greater than 1000 nM.
With `CN(c1ccc(OCc2ccccc2)cc1)c1cc2c(cn1)ncn2C` [Compound 14, N-(4-(benzyloxy)phenyl)-N,1-dimethyl-1H-imidazo[4,5-c]pyridin-6-amine], the IC50 at human JAK1 and at human JAK2 was greater than 1000 nM throughout.
For `Cc1ccccc1N(C)c1cc2c(cn1)ncn2C` [Compound 15, N,1-dimethyl-N-o-tolyl 1H-imidazo[4,5-c]pyridin-6-amine], the IC50 at human JAK1 is 101 to 500 nM; on human JAK2, greater than 1000 nM.
For `CN(c1ccc(OCC2CCCO2)cc1)c1cc2c(cn1)ncn2C` (stereo not drawn) [Compound 18, N,1-dimethyl-N-(4-((tetrahydrofuran-2-yl)methoxy)phenyl)-1H-imidazo[4,5-c]pyridin-6-amine], the figures for the half-maximal inhibitory concentration (IC50) at human JAK1 and on human JAK2 were 501 to 1000 nM and greater than 1000 nM, respectively.
The matching figures for `CN(c1ccc(OCCO)cc1)c1cc2c(cn1)ncn2C` [Compound 19, 2-(4-(methyl(1-methyl-1H-imidazo[4,5-c]pyridin-6-yl)amino)phenoxy)ethanol]: 101 to 500 nM and greater than 1000 nM.
Regarding `Cc1noc(C)c1COc1ccc(N(C)c2cc3c(cn2)ncn3C)cc1` [Compound 20, N-(4-((3,5-dimethylisoxazol-4-yl)methoxy)phenyl)-N,1-dimethyl-1H-imidazo[4,5-c]pyridin-6-amine], the IC50 on human JAK1 and at human JAK2 was greater than 1000 nM each time.
On to `CC(C)CCOc1ccc(N(C)c2cc3c(cn2)ncn3C)cc1` [Compound 21, N-(4-(isopentyloxy)phenyl)-N,1-dimethyl-1H-imidazo[4,5-c]pyridin-6-amine], for which the concentration for half-maximal inhibition (IC50) at human JAK1 is 501 to 1000 nM; at human JAK2, greater than 1000 nM.
With `CCCOc1ccc(N(C)c2cc3c(cn2)ncn3C)cc1` [Compound 22, N,1-dimethyl-N-(4-propoxyphenyl)-1H-imidazo[4,5-c]pyridin-6-amine], the values for the IC50 on human JAK1 and on human JAK2 were 101 to 500 nM and 501 to 1000 nM, respectively.
The matching figures for `CCOCCOc1ccc(N(C)c2cc3c(cn2)ncn3C)cc1` [Compound 23, N-(4-(2-ethoxyethoxy)phenyl)-N,1-dimethyl-1H-imidazo[4,5-c]pyridin-6-amine]: 501 to 1000 nM and greater than 1000 nM.
In the same order, the values of `CN(c1ccc(OCC2CC2)cc1)c1cc2c(cn1)ncn2C` [Compound 24, N-(4-(cyclopropylmethoxy)phen-yl)-N,1-dimethyl-1H-imidazo[4,5-c]pyridin-6-amine] are 101 to 500 nM and greater than 1000 nM.
The matching figures for `CN(c1cc2c(cn1)ncn2C)c1ccccc1C(F)(F)F` [Compound 36, N,1-dimethyl-N-(2-(trifluoromethyl)phenyl)-1H-imidazo[4,5-c]pyridin-6-amine]: greater than 1000 nM and greater than 1000 nM.
Turning to `CCc1ccccc1N(c1cc2c(cn1)ncn2C)C1CC1` [Compound 37, N-Cyclopropyl-N-(2-ethylphenyl)-1-methyl-1H-imidazo[4,5-c]pyridin-6-amine], the IC50 was 101 to 500 nM on human JAK1 and greater than 1000 nM at human JAK2.
For `Cc1cc(C(=O)O)ccc1N(C)c1cc2c(cn1)ncn2C` [Compound 40, 3-methyl-4-(methyl(1-methyl-1H-imidazo[4,5-c]pyridin-6-yl)amino)benzoic acid], the IC50 at human JAK1 and on human JAK2 was greater than 1000 nM in each case.
Turning to `CN(c1cc2c(cn1)ncn2C)c1ccccc1C#N` [Compound 41, 2-(Methyl(1-methyl-1H-imidazo[4,5-c]pyridin-6-yl)amino)benzonitrile], the IC50 at human JAK1 and on human JAK2 was greater than 1000 nM each time.
Take `COc1ccccc1N(C)c1cc2c(cn1)ncn2C` [Compound 42, N-(2-methoxyphenyl)-N,1-dimethyl-1H-imidazo[4,5-c]pyridin-6-amine]: the concentration for half-maximal inhibition (IC50) on human JAK1 was 101 to 500 nM; at human JAK2 it was greater than 1000 nM.
In the same order, the values of `COc1ccc(COc2cccc(N(C)c3cc4c(cn3)ncn4C)c2C)cc1` [Compound 44, N-(3-(4-methoxybenzyloxy)-2-methylphenyl)-N,1-dimethyl-1H-imidazo[4,5-c]pyridin-6-amine] are 501 to 1000 nM and greater than 1000 nM.
`COc1ccc(N(C)c2cc3c(cn2)ncn3C)c(C)c1` [Compound 45, N-(4-Methoxy-2-methylphenyl)-N,1-dimethyl-1H-imidazo[4,5-c]pyridin-6-amine]: the IC50 is 101 to 500 nM on human JAK1 and greater than 1000 nM at human JAK2.
As for `Cc1c(O)cccc1N(C)c1cc2c(cn1)ncn2C` [Compound 46, 2-methyl-3-(methyl(1-methyl-1H-imidazo[4,5-c]pyridin-6-yl)amino)phenol], the IC50 on human JAK1 and at human JAK2 was greater than 1000 nM each time.
For `CN(c1cc2c(cn1)ncn2C)c1ccccc1OC(F)(F)F` [Compound 49, N,1-dimethyl-N-(2-(trifluoromethoxy)phenyl)-1H-imidazo[4,5-c]pyridin-6-amine], the IC50 is 501 to 1000 nM on human JAK1 and greater than 1000 nM on human JAK2.
With `COCCNC(=O)c1ccc(N(C)c2cc3c(cn2)ncn3C)c(C)c1` [Compound 50, N-(2-methoxyethyl)-3-methyl-4-(methyl(1-methyl-1H-imidazo[4,5-c]pyridin-6-yl)amino)benzamide], the IC50 on human JAK1 and at human JAK2 was greater than 1000 nM in each case.
